Values belong to the compound of their own block, whether it stands above or below them.
System: 242566-281-R-J2-PDC complex spheroid viability
Assay: Anticancer human tumor 242566-281-R-J2-PDC patient-derived pancreatic carcinoma cell line growth inhibition [CLK]
Details: for viability, T/C: stronger effect = lower value
Excerpt: A high-throughput screen of multi-cell type tumor spheroids was designed to identify active combinations of […] and targeted small molecules. Complex spheroids include a stromal component modeled by human endothelial cells (HUVEC) and fibroblasts modeled by human mesenchymal stem cells (MSCs). The concentration ranges selected for each drug and investigational agent were based upon clinically achievable concentrations if the clinical Cmax of the agent was known.
Compounds. The drugs and investigational agents: cirtuvivint (SM08502; NSC835563), CC-671 (NSC850746), vemurafenib (NSC761431), tapotoclax (NSC804041), sotorasib (NSC818433), adagrasib (NSC831453), MRTX-1133 (NSC836407), BAY2416964 (NSC825713), copanlisib (NSC816437), inavolisib (NSC800729), abemaciclib (NSC768073), osimertinib (NSC779217), entinostat (NSC756642), eltanexor (KPT-8602, NSC794443), venetoclax (NSC766270), ceralasertib (NSC777638), bortezomib (NSC756655), olaparib (NSC753686), talazoparib (NSC767125), alisertib (NSC759677), peposertib (NSC802822), gemcitabine (NSC613327), 5-fluorouracil (NSC19893), SN-38 (NSC673596), oxaliplatin (NSC266046), paclitaxel (NSC125973), and doxorubicin (NSC123127), were obtained from the National Cancer Institute (NCI) Developmental Therapeutics Program Chemical Repository. The FDA-approved anticancer drug set is available from the Developmental Therapeutics Program at https://dtp.cancer.gov/organization/dscb/obtaining/available plates.htm. […] The stock solutions were prepared in dimethyl sulfoxide (DMSO, Sigma-Aldrich, St. Louis, MO, cat. D2650), except for the platinum complexes which were prepared in saline (Quality Biological, Gaithersburg, MD, cat. 114-055-101), at 800-fold the tested concentration and stored at -70 degrees C prior to their use. All drugs and investigational agents were tested over a range starting from a high concentration at or near the clinical Cmax and decreasing in half-log increments. If the clinical Cmax for an agent had not been determined, the highest concentration tested was 10 microM.
Cell Culture. All cells were maintained in an incubator at 37 degrees C and 5% CO2 with 95% humidity. The PDC lines were cultured according to standard operating procedures established by the NCI PDMR. Briefly, all PDCs were thawed and cultured in Matrigel-coated flasks prepared with a working solution of 1X Ham's F-12 nutrient mix, without supplementation (Invitrogen, Waltham, MA, cat. 11765054), 100 U/mL penicillin-streptomycin (Invitrogen, cat. 15140122), and 2.5% Matrigel (Corning Inc., Corning, NY, cat. 354248) for the first three passages. The 947758-054-R-J2-PDC line was cultured in 6B/Colon 1A media, which includes advanced DMEM/F-12 (Thermo Fisher Scientific, cat. 12634028), 10 mM HEPES (Thermo Fisher Scientific, cat. 15630080), 1X GlutaMAX supplement (Thermo Fisher Scientific, cat. 35050061), 0.1 mg/mL primocin (InvivoGen, cat. ant-pm-2), 10% defined fetal bovine serum, heat inactivated (HyClone Laboratories Inc., cat. SH30070.03HI), 1.25 mM N-Acetyl-L-cysteine (Sigma-Aldrich, cat. A9165), 10 mM nicotinamide (Sigma-Aldrich, cat. N0636), 1X B-27 supplement (Thermo Fisher Scientific, cat. 17504044), 1X N-2 supplement (Thermo Fisher Scientific, cat. 17502048), and 10 microM Y-27632 dihydrochloride (Tocris Bioscience, cat. 1254). The 876862-298-R-J1-PDC was cultured in 6E media, which includes all 6B/Colon 1A media components plus 50% L-WRN conditioned media (ATCC, cat. CRL-3276), 50 ng/mL recombinant human EGF recombinant protein (hEGF; Thermo Fisher Scientific, cat. PHG0311), 10 ng/mL recombinant human fibroblast growth factor 10 (hGFG-10; PeproTech, cat. 100-26), 1 ng/mL recombinant human fibroblast growth factor 2 (hFGF-2; PeproTech, cat. 100-18B), and 1 µM prostaglandin E2 (PGE2; Tocris, cat. 2296). The 227483-062-R1-J1-PDC line was cultured in Panc media, containing all 6E components except hFGF-2, with the addition of 500 nM SB-431542 (Selleckchem, cat. S1067) and 10 nM gastrin (Tocris, cat. 3006). […]

[1] = curve of first compound, second compound 0.0316 µM
[2] = curve of first compound, second compound 0.1 µM
[3] = curve of first compound, second compound 0.316 µM
[4] = curve of first compound, second compound 1 µM
[5] = curve of first compound, second compound 3.16 µM
[6] = curve of first compound, second compound 10 µM
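Further: spheroids exposed to compounds for 7 days before readout.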
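Wherever viability, T/C is given: 100% = DMSO vehicle control wells.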

SMILES: CC(C)CC(NC(=O)C(Cc1ccccc1)NC(=O)c1cnccn1)B(O)O (stereo not given) + CN1CCN(c2cc(C(=O)Nc3cc4cc(-c5cnn(C)c5)ccc4cn3)ccn2)CC1
IC50 [1]: 2.08 nM | IC50 [2]: 1.98 nM | IC50 [3]: < 0.949 nM | IC50 [4]: < 0.949 nM | IC50 [5]: < 0.949 nM | IC50 [6]: < 0.949 nM | viability, T/C (second compound 0.0316 µM, first compound 0.000949 µM): 103% | viability, T/C (second compound 0.0316 µM, first compound 0.003 µM): 25.5% | viability, T/C (second compound 0.0316 µM, first compound 0.00949 µM): 1.28% | viability, T/C (second compound 0.0316 µM, first compound 0.03 µM): 0.43% | viability, T/C (second compound 0.0316 µM, first compound 0.0949 µM): 0.27% | viability, T/C (second compound 0.0316 µM, first compound 0.3 µM): 0.23% | viability, T/C (second compound 0.1 µM, first compound 0.000949 µM): 98.8% | viability, T/C (second compound 0.1 µM, first compound 0.003 µM): 22.7% | viability, T/C (second compound 0.1 µM, first compound 0.00949 µM): 0.52% | viability, T/C (second compound 0.1 µM, first compound 0.03 µM): 0.43% | viability, T/C (second compound 0.1 µM, first compound 0.0949 µM): 0.39% | viability, T/C (second compound 0.1 µM, first compound 0.3 µM): 0.27% | viability, T/C (second compound 0.316 µM, first compound 0.000949 µM): 26.7% | viability, T/C (second compound 0.316 µM, first compound 0.003 µM): 2.24% | viability, T/C (second compound 0.316 µM, first compound 0.00949 µM): 0.29% | viability, T/C (second compound 0.316 µM, first compound 0.03 µM): 0.28% | viability, T/C (second compound 0.316 µM, first compound 0.0949 µM): 0.29% | viability, T/C (second compound 0.316 µM, first compound 0.3 µM): 0.51% | viability, T/C (second compound 1 µM, first compound 0.000949 µM): 5.2% | viability, T/C (second compound 1 µM, first compound 0.003 µM): 1.12% | viability, T/C (second compound 1 µM, first compound 0.00949 µM): 0.43% | viability, T/C (second compound 1 µM, first compound 0.03 µM): 0.31% | viability, T/C (second compound 1 µM, first compound 0.0949 µM): 0.26% | viability, T/C (second compound 1 µM, first compound 0.3 µM): 0.4% | viability, T/C (second compound 3.16 µM, first compound 0.000949 µM): 7.89% | viability, T/C (second compound 3.16 µM, first compound 0.003 µM): 1.95% | viability, T/C (second compound 3.16 µM, first compound 0.00949 µM): 0.39% | viability, T/C (second compound 3.16 µM, first compound 0.03 µM): 0.2% | viability, T/C (second compound 3.16 µM, first compound 0.0949 µM): 0.38% | viability, T/C (second compound 3.16 µM, first compound 0.3 µM): 0.8% | viability, T/C (second compound 10 µM, first compound 0.000949 µM): 1.93% | viability, T/C (second compound 10 µM, first compound 0.003 µM): 1.11% | viability, T/C (second compound 10 µM, first compound 0.00949 µM): 0.3% | viability, T/C (second compound 10 µM, first compound 0.03 µM): 0.44% | viability, T/C (second compound 10 µM, first compound 0.0949 µM): 0.26% | viability, T/C (second compound 10 µM, first compound 0.3 µM): 0.34%

SMILES: Nc1ccn(C2OC(CO)C(O)C2(F)F)c(=O)n1 (stereo not given) + CN1CCN(c2cc(C(=O)Nc3cc4cc(-c5cnn(C)c5)ccc4cn3)ccn2)CC1
IC50 [1]: < 31.6 nM | IC50 [2]: < 31.6 nM | IC50 [3]: < 31.6 nM | IC50 [4]: < 31.6 nM | IC50 [5]: < 31.6 nM | IC50 [6]: < 31.6 nM | viability, T/C (second compound 0.0316 µM, first compound 0.0316 µM): 46.6% | viability, T/C (second compound 0.0316 µM, first compound 0.1 µM): 20.6% | viability, T/C (second compound 0.0316 µM, first compound 0.316 µM): 10.6% | viability, T/C (second compound 0.0316 µM, first compound 1 µM): 13.3% | viability, T/C (second compound 0.0316 µM, first compound 3.16 µM): 8.86% | viability, T/C (second compound 0.0316 µM, first compound 10 µM): 6.79% | viability, T/C (second compound 0.1 µM, first compound 0.0316 µM): 48.6% | viability, T/C (second compound 0.1 µM, first compound 0.1 µM): 15.4% | viability, T/C (second compound 0.1 µM, first compound 0.316 µM): 10.2% | viability, T/C (second compound 0.1 µM, first compound 1 µM): 6.87% | viability, T/C (second compound 0.1 µM, first compound 3.16 µM): 6.64% | viability, T/C (second compound 0.1 µM, first compound 10 µM): 5.01% | viability, T/C (second compound 0.316 µM, first compound 0.0316 µM): 23.9% | viability, T/C (second compound 0.316 µM, first compound 0.1 µM): 15.3% | viability, T/C (second compound 0.316 µM, first compound 0.316 µM): 10.9% | viability, T/C (second compound 0.316 µM, first compound 1 µM): 4.57% | viability, T/C (second compound 0.316 µM, first compound 3.16 µM): 4.57% | viability, T/C (second compound 0.316 µM, first compound 10 µM): 3.01% | viability, T/C (second compound 1 µM, first compound 0.0316 µM): 4.38% | viability, T/C (second compound 1 µM, first compound 0.1 µM): 4.08% | viability, T/C (second compound 1 µM, first compound 0.316 µM): 3.98% | viability, T/C (second compound 1 µM, first compound 1 µM): 4.09% | viability, T/C (second compound 1 µM, first compound 3.16 µM): 4.15% | viability, T/C (second compound 1 µM, first compound 10 µM): 3.45% | viability, T/C (second compound 3.16 µM, first compound 0.0316 µM): 7.21% | viability, T/C (second compound 3.16 µM, first compound 0.1 µM): 6.5% | viability, T/C (second compound 3.16 µM, first compound 0.316 µM): 5.9% | viability, T/C (second compound 3.16 µM, first compound 1 µM): 5.48% | viability, T/C (second compound 3.16 µM, first compound 3.16 µM): 5.49% | viability, T/C (second compound 3.16 µM, first compound 10 µM): 5.8% | viability, T/C (second compound 10 µM, first compound 0.0316 µM): 1.62% | viability, T/C (second compound 10 µM, first compound 0.1 µM): 1.77% | viability, T/C (second compound 10 µM, first compound 0.316 µM): 1.12% | viability, T/C (second compound 10 µM, first compound 1 µM): 1.8% | viability, T/C (second compound 10 µM, first compound 3.16 µM): 1.55% | viability, T/C (second compound 10 µM, first compound 10 µM): 1.05%

IC50 (compound alone, run of 07/31/2023): 230 nM [middle of 12 runs]
SMILES: CN1CCN(c2cc(C(=O)Nc3cc4cc(-c5cnn(C)c5)ccc4cn3)ccn2)CC1
viability, T/C (compound 0.0316 µM): 101% [middle of 12 runs] | viability, T/C (compound 0.1 µM): 90.2% [middle of 12 runs] | viability, T/C (compound 1 µM): 4.87% [middle of 12 runs] | viability, T/C (compound 3.16 µM): 7.54% [middle of 12 runs] | viability, T/C (compound 10 µM): 1.65% [middle of 11 runs]

— PubChem BioAssay AID2060622 (Molecular Pharmacology Branch, DTP, NCI, 2025)
